{
  "source": "paper PMC5672024",
  "about": "“Selective Glucocorticoid Receptor Properties of GSK866 Analogs with Cysteine Reactive Warheads” (Frontiers in Immunology, 2017)",
  "key": {"[1]": {"system": "GR nuclear translocation in A549 cells", "assay": "Immunofluorescence of nuclear GR translocation in A549 cells", "assay_type": "cell-based, human", "settings": "serum starved A549 cells, 1 µM, 30 min", "procedure": "To detect endogenous GR in A549 cells, cells were grown in serum free media for 24 h followed by treatment with 1 µM of specific GR ligands. After 30 min of treatment, cells on the cover glass were fixed in 4% formaldehyde in phosphate-buffered saline (PBS), permeabilized with 0.3% Triton X-100–PBS, and then blocked in 5% milk, 10% FCS, 0.3% bovine serum albumin, and 0.3% Triton X-100 in PBS for 30 min at room temperature. Primary antibodies against anti GR-antibody (SantaCruz Biotechnology) were used at a dilution of 1:200. Nuclei were stained by DAPI and samples were analyzed using a confocal Leica LSM410 microscope. To quantify nuclear translocation of GR in a standardized manner, multichannel fluorescence images were analyzed using a script for FIJI image analysis freeware (http://fiji.sc) that is essentially based on a pipeline described before (CellBlocks.ijm) ([39]), and is available upon request. In brief, the analysis first segments nuclei in the Hoechst/DAPI channel and then uses the nuclear mask to define perinuclear cytoplasmic regions of interest (ROIs). Nuclei are detected after local contrast enhancement and Gaussian smoothing to, respectively, cover for spatial illumination heterogeneity and noise. After automatic thresholding (Isodata algorithm), touching nuclei are separated using a conditional watershed algorithm ([40]). Next, cytoplasmic ROIs are determined as concentric bands around the nuclei by Voronoi-restrained region growing ([41]). Finally, the average intensity of the GR channel is measured in both the nuclear and cytoplasmic ROIs and the nuclear-to cytoplasm signal intensity ratio (N/C Ratio) is calculated per cell (Figure S1 in Supplementary Material) ([42]).\nFigure 6 Selective glucocorticoid receptor agonist GSK866 analogs UAMC-1217, UAMC-1218, but not UAMC-1158 and UAMC-1159 trigger nuclear glucocorticoid receptor (GR) translocation. (A) Serum starved A549 cells were left solvent treated or treated for 30 min with 1 µM Dex, Dex-mesylate (Dex-Mes), GSK866, UAMC-1158, UAMC-1159, UAMC-1217, or UAMC-1218. GR translocation was evaluated by immunofluorescence whereas nuclei were stained by DAPI dye. Magnification is at 100×. White scalebars represent […]. (B) Automated image quantification of GR translocation of three replicate immunofluorescence images of the different experimental setups."}, "[2]": {"system": "TNF-induced NFκB reporter gene activity in L929sA cells", "assay": "p(NFκB)3-50luc reporter gene assay with TNF (NFκB transrepression)", "assay_type": "cell-based", "settings": "TNF 2,500 IU/ml; for NFκB transrepression in NFκB-luc reporter: dose range", "procedure": "(§1) In order to compare transactivation and transrepression potencies of the different synthesized GSK866 analogs, we performed GRE- and NFκB-luciferase-dependent reporter gene studies in stable transfected cell lines, as previously described ([3], [8]). HaCat cells expressing p(GRE)2 50-Luc and L929sA cells expressing p(GRE)250-Luc or p(NFκB)350-Luc were cultured in DMEM medium with 1% L-glutamine, supplemented with 10% feral bovine serum (FBS), 100 µg/ml streptomycin, and 100 IU/mL penicillin in a humidified 5% CO2 atmosphere. Cells were passaged every 2 days at a dilution of 1:6. Reporter gene cells were plated at a density of 0.5 × 10^5 cells/well in 24 well plates and grown overnight. p(GRE)250-Luc-dependent reporter gene cells were treated with solvent (DMSO) or compound (100 fM, 1 nM, 10 nM, 100 nM, and 1 µM) for 6 h, whereas in case of p(NFκB)350-Luc, TNF (2,500 IU/mL) was added 2 h following compound treatment. After incubation with the compounds, medium was removed and cells were washed twice with PBS followed by adding 100 µl of 1× lysis buffer (0.2 M K2HPO4, 0.2 M KH2PO4, Triton X-100, pH 7.6). 25 µl of lysate was assayed for luciferase activity by adding 50 µl of luciferase assay substrate (1 mM luciferin or luciferin salt, 3 mM ATP, and 15 mM MgSO4 in 30 mM HEPES buffer, pH 7.8) followed by 10 s mixing and measuring 1 s bioluminescence using an Envision multilabel reader (Perkin Elmer).\n(§2) Figure 3 Selective glucocorticoid receptor agonist GSK866 analogs UAMC-1217, UAMC-1218 but not UAMC-1158 and UAMC-1159 elicit selective glucocorticoid receptor-transactivation and NFκB-transrepression properties. Glucocorticoid response element (GRE)- and NFκB-luciferase-dependent reporter gene assays were performed in L929sA and HaCat reporter cells which were stably transfected with, respectively, p(NFκB)3-50luc or p(GRE)2-50-luc constructs. For p(GRE)2-50-luc reporter assays, cells were solvent-treated or induced with different concentrations of Dex (A), Dex-mesylate (Dex-Mes) (A), SEGRA GSK866 (C) or analogs UAMC-1158 (D), UAMC-1159 (E), UAMC-1217 (F), and UAMC-1218 (G) as indicated for a total exposure time of 6 h, whereas cells were cotreated for TNF (2,500 IU/ml) in the last 4 h for p(NFkB)3-50luc reporter assays (B–G). Corresponding lysates were assayed for luciferase activities and normalized for protein content as described in the Section “Materials and Methods.” Promoter activities are expressed as relative induction factor (± standard deviation) i.e., the ratio of expression levels recorded either at induced and non-induced conditions, with the latter taken to be 1."}, "[3]": {"system": "GR", "set-up": "method as in PMID 27612544", "settings": "ref [14], cited from earlier work; for % inhibition of GR ligand binding: 1.5 nM [3H]-dexamethasone, 1 µM ligand; for IC50 / Ki: displacement of radiolabeled Dex; for IC50: read-out: IC50 (GR radioligand binding); for Ki: read-out: Ki (GR radioligand binding); for displacement of radiolabeled Dex: cell-based ligand-binding competition assay"}, "[4]": {"system": "GR transactivation, p(GRE)2-50-luc reporter in HaCat cells", "assay": "p(GRE)2-50-luc reporter gene assay (GR transactivation)", "assay_type": "cell-based", "settings": "6 h; for GR transactivation in GRE-luc reporter: concentration range 10^−6–10^−10 M", "procedure": "as §1, §2"}, "[5]": {"system": "GR Ser211 phosphorylation", "assay": "Western blot of GR Ser211 phosphorylation", "assay_type": "cell-based", "settings": "1 µM, 6 h (UAMC-1158: Figure S2, 4 or 24 h)", "procedure": "Whole cell extracts contain multiple protease inhibitors (Complete Mini®, Roche) and Halt phosphatase inhibitor cocktail (Thermoscientific). Soluble protein extracts were obtained after three times freeze and thaw cycles and centrifugation at […] for 15 min at 4°C. Samples were separated by sodium dodecyl sulfate-polyacrylamidegel electrophoresis (SDS-PAGE) and transferred onto nitrocellulose membranes (Hybond C, Amersham) following standard protocols. After blocking, membranes were incubated overnight at 4°C with the primary antibodies: anti-GR (sc-8992, SantaCruz Biotechnology), anti-phospho-GR Ser211 (4161, Cell Signalling) and anti-Actin (A3853, Sigma-Aldrich) followed by dye-conjugated secondary antibodies (LI-COR® Biosciences). Bound complexes were detected with the Odyssey® infrared imaging system (LI-COR®) and quantified by Image J software.\nFigure 5 Selective glucocorticoid receptor agonist GSK866 and its analogs UAMC-1217, UAMC-1218 trigger glucocorticoid receptor (GR) Ser211 phosphorylation. (A) Western detection of expression levels of Actin, GR, and GR Ser S211 phosphorylation in HaCat cells following 6 h treatment with 1 µM Dex, UAMC-1217, UAMC-1218, or GSK866. (B) Bar plot representation of Western blot intensities of Actin, GR, and GR Ser S211 phosphorylation observed in panel A, as quantified by Image J. (C) Western detection of expression levels of Actin, GR expression, and Ser S211 phosphorylation in HaCat cells following 6 h treatment with, respectively, 10, 100, or 1,000 nM Dex or UAMC-1217. (D) Bar plot representation of Western blot intensities of Actin, GR, and GR Ser S211 phosphorylation observed in panel (C), as quantified by free Image J software."}, "[6]": {"system": "GR", "assay": "Cell-based GR ligand-binding competition assay with [3H]-dexamethasone", "settings": "from IC50 values of ligand displacement assays; ref [14]"}, "[7]": {"system": "recombinant GR-LBD (hGR)", "assay": "Mass spectrometry of tryptic peptides of recombinant GR-LBD after ligand incubation (covalent binding)", "set-up": "species or system human", "settings": "2 h at 37°C, trypsin digestion, LC-MS/MS", "experimental": "Recombinant His6-MBP-mCaspase3 site-LBD-hGR was expressed in the Escherichia coli strain BL21codon + pICA2 that was transformed with the corresponding pLHM36LBD-hGR plasmid and in which expression was induced by Isopropyl β-D-1-thiogalactopyranoside (IPTG) under control of a pL-promotor. The transformed bacteria were grown in Luria Bertani medium supplemented with ampicillin (100 µg/ml) and kanamycin (50 µg/ml) overnight at 28°C before 1/100 inoculation in 12 × 0.5 l provided with Luria Bertani medium supplemented with ampicillin (100 µg/ml) and 1% glycerol in a shaker incubator. The cells were grown to an optical density at AU 600 nm of 0.65, transferred to 20°C and expression was induced by addition of 1 mM IPTG overnight. Cells were then harvested and frozen at −20°C. […] After thawing, the cells were re-suspended at 3 ml/g in cold 20 mM Tris-HCl pH 7.4, 200 mM NaCl, 1 mM EDTA, 1 tablet complete protease inhibitor cocktail from Roche/50 ml, and 10 mM β-mercaptoethanol. The cytoplasmic fraction was prepared by sonication of the cells on ice and isolated by centrifugation at 18,000 × g for 30 min. All further purification steps were conducted at 4°C. The clear supernatant was applied to an amylase column (BioLabs, XK26 × 20, 100 ml), equilibrated with 20 mM Tris–HCl pH 7.4, 200 mM NaCl, 1 mM EDTA, and 10 mM β-mercaptoethanol. The column was eluted with 20 mM Tris–HCl pH 7.4, 200 mM NaCl, 1 mM EDTA, 10 mM maltose, and 10 mM β-mercaptoethanol. […] Recombinant purified His-MBP-DEVD-GR-LBD fusion protein was dissolved at a concentration of 1 mg in 1.7 ml PBS buffer.\nEach aliquot was incubated 2 h at 37°C. […] 120 µl of each sample was loaded onto a spin column and the flow-through was collected (1,500 × g, 2 min). Trypsin (5 µl of 20 mM stock solution) was added, and the samples were incubated 20 h at 37°C. Then, 0.1% FA (formic acid) (41.5 µl) and 20 mM TCEP in 0.1% FA (18.5 µl, 5.7 mg TCEP/ml) were added [final volume = 185 µl, final concentration TCEP = 2 mM, 1 µg material/2.5 μl], and the samples were subjected to LC–MS/MS analysis.\nThe obtained peptide mixtures were introduced onto an LC–MS/MS system; the Ultimate 3000 RSLC nano (Dionex, Amsterdam, The Netherlands) in-line connected to an LTQ-Orbitrap Velos (Thermo Fisher Scientific, Bremen, Germany). The sample mixture was loaded on a trapping column [made in-house, 100 µm internal diameter (I.D.) × 20 mm, 5 µm C18 beads (Reprosil-HD, Dr. Maisch)]. After back flushing from the trapping column, the sample was loaded on a reverse-phase column [made in-house, 75 µm I.D. × 150 mm, 5 µm C18 beads (Reprosil-HD, Dr. Maisch)].\nThe mass spectrometer was operated in data-dependent mode, automatically switching between MS and MS/MS acquisition for the 10 most abundant peaks in a given MS spectrum. […]"}},
  "data": [
    {"smiles": "C[C@@H]1C[C@H]2[C@@H]3CCC4=CC(=O)C=C[C@]4(C)[C@@]3(F)[C@@H](O)C[C@]2(C)[C@@]1(O)C(=O)COS(C)(=O)=O", "note": "[Dex-Mes, dexamethasone-21-mesylate, reference compound]", "values": [
      {"measurement": "nuclear GR translocation", "setting": "[1]", "value": "induce (partial) translocation of GR from the cytosol to the nucleus"},
      {"measurement": "inhibition of TNF-induced NFκB reporter gene activity", "setting": "[2]; 10 nM compound", "value": "40–45%"},
      {"measurement": "% inhibition of GR ligand binding", "setting": "[3]", "value": 99, "unit": "%"},
      {"measurement": "IC50", "setting": "[3]", "value": 7.3, "unit": "nM"},
      {"measurement": "Ki", "setting": "[3]", "value": 3.7, "unit": "nM"},
      {"measurement": "GR transactivation in GRE-luc reporter", "setting": "[4]", "value": "weaker dose-dependent GR-dependent transactivation than Dex"}
    ]},
    {"smiles": "CCN(C[C@@](O)(CNC(=O)c1cnn(-c2ccc(F)cc2)c1N)C(F)(F)F)C(=O)c1c(Cl)cccc1Cl", "note": "[GSK866]", "values": [
      {"measurement": "nuclear GR translocation", "setting": "[1]", "value": "induce (partial) translocation of GR from the cytosol to the nucleus"},
      {"measurement": "NFκB transrepression in NFκB-luc reporter", "setting": "[2]", "value": "dose-dependent NFκB-transrepression effects"},
      {"measurement": "% inhibition of GR ligand binding", "setting": "[3]", "value": 100, "unit": "%"},
      {"measurement": "IC50", "setting": "[3]", "value": 4.6, "unit": "nM"},
      {"measurement": "Ki", "setting": "[3]", "value": 2.3, "unit": "nM"},
      {"measurement": "GR transactivation in GRE-luc reporter at 10 nM", "setting": "[4]", "value": "significant GR transactivation"},
      {"measurement": "GR transactivation in GRE-luc reporter", "setting": "[4]", "value": "strong GR agonistic activities"},
      {"measurement": "GR Ser211 phosphorylation", "setting": "[5]", "value": "enhance the Ser211 phosphorylation"}
    ]},
    {"smiles": "CCN(C[C@@](O)(CNC(=O)c1cnn(-c2ccc(F)cc2)c1N)C(F)(F)F)C(=O)CCN1C(=O)C=CC1=O", "note": "[UAMC-1158]", "values": [
      {"measurement": "nuclear GR translocation", "setting": "[1]", "value": "completely ineffective"},
      {"measurement": "NFκB transrepression in NFκB-luc reporter", "setting": "[2]", "value": "completely ineffective"},
      {"measurement": "% inhibition of GR ligand binding", "setting": "[3]", "value": "−2", "unit": "%"},
      {"measurement": "displacement of radiolabeled Dex", "setting": "[3]", "value": "failed to show displacement of radiolabeled Dex"},
      {"measurement": "GR transactivation in GRE-luc reporter", "setting": "[4]", "value": "completely fail to elicit any GR transactivation at any dose tested"},
      {"measurement": "GR Ser211 phosphorylation", "setting": "[5]", "value": "failed to show any change in GR phosphorylation status"}
    ]},
    {"smiles": "CCN(CC(O)(CNC(=O)c1cnn(-c2ccc(F)cc2)c1N)C(F)(F)F)C(=O)C1CCCN1C(=O)CCl", "note": "(stereo not drawn) [UAMC-1159]", "values": [
      {"measurement": "nuclear GR translocation", "setting": "[1]", "value": "completely ineffective"},
      {"measurement": "NFκB transrepression in NFκB-luc reporter", "setting": "[2]", "value": "completely ineffective"},
      {"measurement": "% inhibition of GR ligand binding", "setting": "[3]", "value": "−12", "unit": "%"},
      {"measurement": "displacement of radiolabeled Dex", "setting": "[3]", "value": "failed to show displacement of radiolabeled Dex"},
      {"measurement": "GR transactivation in GRE-luc reporter", "setting": "[4]", "value": "completely fail to elicit any GR transactivation at any dose tested"}
    ]},
    {"smiles": "C=CC(=O)Nc1ccc(Cl)c(C(=O)N(CC)C[C@@](O)(CNC(=O)c2cnn(-c3ccc(F)cc3)c2N)C(F)(F)F)c1Cl", "note": "[UAMC-1218]", "values": [
      {"measurement": "nuclear GR translocation", "setting": "[1]", "value": "induce (partial) translocation of GR from the cytosol to the nucleus"},
      {"measurement": "inhibition at 0.01 µM", "setting": "[2]; L929sA, 10 nM compound", "value": "~95", "unit": "%"},
      {"measurement": "NFκB transrepression in NFκB-luc reporter", "setting": "[2]", "value": "dose-dependent NFκB-transrepression effects"},
      {"measurement": "% inhibition of GR ligand binding", "setting": "[3]", "value": 96, "unit": "%"},
      {"measurement": "IC50", "setting": "[3]", "value": 34, "unit": "nM"},
      {"measurement": "Ki", "setting": "[3]", "value": 17, "unit": "nM"},
      {"measurement": "fold lower GR-LBD affinity versus GSK866", "setting": "[6]", "value": "approx. 5 fold"},
      {"measurement": "Modifications: GR-LBD cysteine-containing peptide covalently bound", "setting": "[7]", "value": "Cys-622"},
      {"measurement": "Modifications: GR-LBD cysteine-containing peptide covalently bound", "setting": "[7]; listed as 1218", "value": "Peptide 615–633 → C622"},
      {"measurement": "GR transactivation in GRE-luc reporter at 10 nM", "setting": "[4]", "value": "significantly reduced GR transactivation to levels below transactivation observed with 10 nM of Dex"},
      {"measurement": "GR Ser211 phosphorylation", "setting": "[5]", "value": "enhance the Ser211 phosphorylation"}
    ]}
  ]
}
